By IC50 is commonly meant the point on the concentration scale where inhibition reaches its midpoint.

Molecules are shown by their SMILES. Where two headings read alike, the source gives them in different places.

One assay concerns the target BRM (Homo sapiens, UniProt P51531). Description: ATPase catalytic activity assay of BRM (ADP-Glo). The format is biochemical. The conditions noted are these: for IC50: read-out: BRM IC50 (μM)*. How it is done: (§1) The ATPase catalytic activity of BRM or BRG-1 was measured by the in vitro biochemical assay using ADP-Glo™ (Promega, V9102). The ADP-Glo™ kinase assay is performed in two steps once the reaction is complete. The first step is to deplete any unconsumed ATP in the reaction. The second step is to convert the reaction product ADP to ATP, which will be utilized by the luciferase to generate luminesce and be detected by a luminescence reader, such as Envision.
(§2) Then following addition of 5 μL of ADP-Glo™ Reagent provided in the kit, the reaction incubates at room temperature for 40 minutes. Then 10 μL of Kinase Detection Reagent provided in the kit is added to convert ADP to ATP, and the reaction incubates at room temperature for 60 minutes. Finally, luminescence measurement is collected with a plate-reading luminometer, such as Envision.
(§3) The ADP-Glo™ kinase assay is performed in two steps once the reaction is complete. The first step is to deplete any unconsumed ATP in the reaction. The second step is to convert the reaction product ADP to ATP, which will be utilized by the luciferase to generate luminesce and be detected by a luminescence reader, such as Envision.
A general note: ADP-Glo first removes unused ATP, then detects ADP through luciferase.

Another assay has as its target BRG-1 (Homo sapiens, UniProt P51532). The assay is described as follows: ATPase catalytic activity assay of BRG-1 (ADP-Glo). The following applies: ATPase catalytic activity, ADP-Glo; for IC50: read-out: BRG1 IC50 (μM)*; for Emax: read-out: BRG1 Max % Inhibition. It is filed as biochemical. How it is done:
as §1, §2, §3

Chain of BRM (P51531 whole entry): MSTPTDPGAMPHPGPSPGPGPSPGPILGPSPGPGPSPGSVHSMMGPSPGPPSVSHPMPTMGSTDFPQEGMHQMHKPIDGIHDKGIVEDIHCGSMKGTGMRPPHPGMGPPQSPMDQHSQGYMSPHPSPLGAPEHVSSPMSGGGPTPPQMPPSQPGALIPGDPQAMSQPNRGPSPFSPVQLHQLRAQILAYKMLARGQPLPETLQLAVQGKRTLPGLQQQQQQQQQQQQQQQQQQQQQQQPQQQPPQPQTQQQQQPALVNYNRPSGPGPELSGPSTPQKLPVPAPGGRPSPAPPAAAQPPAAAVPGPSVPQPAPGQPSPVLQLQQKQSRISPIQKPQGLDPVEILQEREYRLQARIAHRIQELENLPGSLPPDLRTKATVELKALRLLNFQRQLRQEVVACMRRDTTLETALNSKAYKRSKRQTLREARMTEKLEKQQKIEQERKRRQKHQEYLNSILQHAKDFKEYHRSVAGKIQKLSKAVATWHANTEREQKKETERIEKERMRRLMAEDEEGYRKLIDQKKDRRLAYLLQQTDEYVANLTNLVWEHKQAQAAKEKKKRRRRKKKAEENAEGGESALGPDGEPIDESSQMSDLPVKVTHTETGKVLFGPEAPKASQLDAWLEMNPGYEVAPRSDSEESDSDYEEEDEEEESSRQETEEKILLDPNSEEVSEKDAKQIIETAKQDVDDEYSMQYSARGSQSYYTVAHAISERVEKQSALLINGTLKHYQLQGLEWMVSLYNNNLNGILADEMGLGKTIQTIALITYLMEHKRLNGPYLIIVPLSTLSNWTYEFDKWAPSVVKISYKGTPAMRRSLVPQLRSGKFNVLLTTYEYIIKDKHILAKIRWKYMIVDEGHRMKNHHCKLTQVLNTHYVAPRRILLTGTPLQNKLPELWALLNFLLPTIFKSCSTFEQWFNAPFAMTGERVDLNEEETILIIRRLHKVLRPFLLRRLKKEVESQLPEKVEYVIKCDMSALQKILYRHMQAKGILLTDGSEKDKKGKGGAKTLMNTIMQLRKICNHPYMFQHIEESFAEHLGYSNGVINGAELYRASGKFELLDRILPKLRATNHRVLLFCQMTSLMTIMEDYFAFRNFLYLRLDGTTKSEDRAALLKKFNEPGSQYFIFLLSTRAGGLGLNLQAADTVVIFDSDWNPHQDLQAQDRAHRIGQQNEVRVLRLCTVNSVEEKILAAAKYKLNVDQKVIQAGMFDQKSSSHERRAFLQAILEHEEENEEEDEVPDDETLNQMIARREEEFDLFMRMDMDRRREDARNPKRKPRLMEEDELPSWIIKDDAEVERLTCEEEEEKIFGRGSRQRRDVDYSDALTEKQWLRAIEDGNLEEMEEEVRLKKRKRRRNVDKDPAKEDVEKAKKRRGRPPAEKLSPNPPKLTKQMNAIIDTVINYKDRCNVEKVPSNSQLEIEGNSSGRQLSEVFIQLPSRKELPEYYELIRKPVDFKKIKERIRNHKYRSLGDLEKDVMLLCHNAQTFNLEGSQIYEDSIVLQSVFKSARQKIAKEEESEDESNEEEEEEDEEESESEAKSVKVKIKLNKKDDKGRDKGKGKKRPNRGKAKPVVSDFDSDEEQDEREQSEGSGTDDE
Chain of BRG-1 (P51532 whole entry): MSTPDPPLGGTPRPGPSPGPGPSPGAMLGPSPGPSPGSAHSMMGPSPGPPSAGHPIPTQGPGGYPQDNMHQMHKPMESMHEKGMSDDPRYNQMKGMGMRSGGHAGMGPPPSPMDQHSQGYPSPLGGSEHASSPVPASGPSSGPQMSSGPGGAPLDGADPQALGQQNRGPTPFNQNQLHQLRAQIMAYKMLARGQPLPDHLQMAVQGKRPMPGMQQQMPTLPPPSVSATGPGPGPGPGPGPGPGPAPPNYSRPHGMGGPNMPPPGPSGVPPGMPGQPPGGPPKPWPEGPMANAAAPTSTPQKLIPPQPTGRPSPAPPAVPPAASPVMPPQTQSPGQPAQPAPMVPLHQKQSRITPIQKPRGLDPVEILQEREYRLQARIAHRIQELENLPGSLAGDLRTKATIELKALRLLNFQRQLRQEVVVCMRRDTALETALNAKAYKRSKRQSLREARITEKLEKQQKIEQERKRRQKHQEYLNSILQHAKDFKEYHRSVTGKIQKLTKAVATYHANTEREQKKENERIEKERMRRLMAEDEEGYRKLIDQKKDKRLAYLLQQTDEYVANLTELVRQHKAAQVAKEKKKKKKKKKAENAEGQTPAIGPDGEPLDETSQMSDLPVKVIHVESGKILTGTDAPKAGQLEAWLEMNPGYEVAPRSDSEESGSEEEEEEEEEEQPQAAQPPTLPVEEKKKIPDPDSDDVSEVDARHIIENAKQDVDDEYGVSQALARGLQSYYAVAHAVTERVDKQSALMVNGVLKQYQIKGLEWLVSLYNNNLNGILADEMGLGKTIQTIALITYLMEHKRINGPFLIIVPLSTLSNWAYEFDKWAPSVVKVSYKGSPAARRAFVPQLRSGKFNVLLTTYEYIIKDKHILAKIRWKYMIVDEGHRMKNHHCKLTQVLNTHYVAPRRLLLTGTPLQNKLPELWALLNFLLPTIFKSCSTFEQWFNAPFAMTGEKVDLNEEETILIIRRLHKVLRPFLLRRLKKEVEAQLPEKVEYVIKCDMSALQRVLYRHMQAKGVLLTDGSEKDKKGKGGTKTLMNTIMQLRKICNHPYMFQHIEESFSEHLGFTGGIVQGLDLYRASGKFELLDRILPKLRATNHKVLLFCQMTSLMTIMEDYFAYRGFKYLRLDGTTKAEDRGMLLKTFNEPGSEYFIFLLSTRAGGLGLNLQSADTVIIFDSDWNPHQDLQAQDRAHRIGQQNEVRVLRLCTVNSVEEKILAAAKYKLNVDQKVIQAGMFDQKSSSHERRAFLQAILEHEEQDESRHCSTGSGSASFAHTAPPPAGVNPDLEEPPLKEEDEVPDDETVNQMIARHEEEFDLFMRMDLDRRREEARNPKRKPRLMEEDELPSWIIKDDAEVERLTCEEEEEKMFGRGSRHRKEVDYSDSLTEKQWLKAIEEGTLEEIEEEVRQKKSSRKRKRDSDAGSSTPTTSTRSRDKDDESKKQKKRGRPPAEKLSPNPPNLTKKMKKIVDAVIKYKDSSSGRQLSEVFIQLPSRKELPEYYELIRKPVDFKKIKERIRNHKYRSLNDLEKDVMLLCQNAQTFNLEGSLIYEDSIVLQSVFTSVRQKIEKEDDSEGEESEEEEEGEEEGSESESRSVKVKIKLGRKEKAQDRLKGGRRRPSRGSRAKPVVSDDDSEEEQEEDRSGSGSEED

Turning to `COC(=O)N1CCC[C@@H](c2csc(NC(=O)CNC(=O)c3ccc4c(c3)[C@@](C)(C#N)COC4)n2)C1` (stereo in doubt) [Compound 354, methyl (R)-3-(2-(2-((S)-4-cyano-4-methylisochromane-6-carboxamido)acetamido)thiazol-4-yl)piperidine-1-carboxylate], on BRM, the “BRM Max % Inhibition” value is on record as over 95% and the IC50 was in the range of 0.1 to 1 µM. Further, on BRG-1, the IC50 was 0.1 to 1 µM and the Emax was over 95%.

`C[C@@H]1CN(c2cccc(-c3csc(NC(=O)CNC(=O)c4ccc5c(c4)C(C)(CO)COC5)n3)c2)C[C@H](C)O1` (stereo in doubt) [Compound 372, (R)-N-(2-((4-(3-((cis)-2,6-dimethylmorpholino)phenyl)thiazol-2-yl)amino)-2-oxoethyl)-4-(hydroxymethyl)-4-methylisochromane-6-carboxamide]: at BRM, the “BRM Max % Inhibition” value is recorded as over 95% and the IC50 is under 0.1 µM. Also, on BRG-1, the IC50 lay within 0.1 to 1 µM and the Emax was over 95%.

As for `C[C@@H]1CN(c2cccc(-c3csc(NC(=O)CNC(=O)c4ccc5c(c4)C(C)(CO)COC5)n3)c2)C[C@H](C)O1` (stereo in doubt) [Compound 373, (S)-N-(2-((4-(3-((cis)-2,6-dimethylmorpholino)phenyl)thiazol-2-yl)amino)-2-oxoethyl)-4-(hydroxymethyl)-4-methylisochromane-6-carboxamide], at BRM, the “BRM Max % Inhibition” value was over 90% and the IC50 is 0.1 to 1 µM. On BRG-1, the IC50 is 1 to 5 µM and the Emax is over 90%.

Take `CC1(C#N)CCOc2ccc(C(=O)NCC(=O)Nc3nc(-c4cccc([C@H]5CC5(F)F)n4)cs3)cc21` (stereo in doubt) [Compound 378, (S)-4-cyano-N-(2-((4-(6-((R)-2,2-difluorocyclopropyl)pyridin-2-yl)thiazol-2-yl)amino)-2-oxoethyl)-4-methylchromane-6-carboxamide]: at BRM, the “BRM Max % Inhibition” value was over 95% and the IC50 lay in the range of 0.1 to 1 µM. Also, at BRG-1, the IC50 lay in the range of 1 to 5 µM and the Emax was over 95%.

Regarding `CC1(C#N)CCOc2ccc(C(=O)NCC(=O)Nc3nc(-c4cccc([C@@H]5CC5(F)F)n4)cs3)cc21` (stereo in doubt) [Compound 380, (S)-4-cyano-N-(2-((4-(6-((S)-2,2-difluorocyclopropyl)pyridin-2-yl)thiazol-2-yl)amino)-2-oxoethyl)-4-methylchromane-6-carboxamide], at BRM, the “BRM Max % Inhibition” value is recorded as over 85% and the IC50 lay within 0.1 to 1 µM. Moreover, at BRG-1, the IC50 was 1 to 5 µM and the Emax was over 85%.

As to `C[C@@H]1CN(c2cccc(-c3csc(NC(=O)CNC(=O)c4cccc([C@@]5(C)COC[C@@H]5O)c4)n3)n2)C[C@H](C)O1` (stereo in doubt) [Compound 413, N-(2-((4-(6-((cis)-2,6-dimethylmorpholino)pyridin-2-yl)thiazol-2-yl)amino)-2-oxoethyl)-3-((cis)-4-hydroxy-3-methyltetrahydrofuran-3-yl)benzamide], at BRM (30 nM BRM, 400 μM ATP), the “BRM Max % Inhibition” value is listed as over 95% and the IC50 lay within 0.1 to 1 µM. Further, at BRG-1 (30 nM BRG-1, 400 μM ATP), the IC50 lay within 1 to 5 µM and the Emax is over 95%.

`C[C@H](NC(=O)c1ccc2c(c1)C(C)(CO)CC2)C(=O)Nc1nc(-c2cccc(N3CCC3)c2)cs1` (stereo in doubt) [Compound 414, (S)-N-((S)-1-((4-(3-(azetidin-1-yl)phenyl)thiazol-2-yl)amino)-1-oxopropan-2-yl)-3-(hydroxymethyl)-3-methyl-2,3-dihydro-1H-indene-5-carboxamide]: on BRM (30 nM BRM, 400 μM ATP), the “BRM Max % Inhibition” value was over 95% and the IC50 lay in the range of 0.1 to 1 µM. At BRG-1 (30 nM BRG-1, 400 μM ATP), the IC50 is 0.1 to 1 µM and the Emax was over 95%.

On to `CC1(C#N)CCOc2ccc(C(=O)NCC(=O)Nc3nc(-c4cccc(N5CCC5)c4)cs3)cc21` (stereo in doubt) [Compound 416, (S)-N-(2-((4-(3-(azetidin-1-yl)phenyl)thiazol-2-yl)amino)-2-oxoethyl)-4-cyano-4-methylchromane-6-carboxamide], for which, on BRM (30 nM BRM, 400 μM ATP), the “BRM Max % Inhibition” value is over 95% and the IC50 was under 0.1 µM. Also, on BRG-1 (30 nM BRG-1, 400 μM ATP), the IC50 is 0.1 to 1 µM and the Emax is over 95%.

`C[C@@H]1CN(c2cccc(-c3csc(NC(=O)CNC(=O)c4ccc5c(c4)C(C)(C#N)CO5)n3)c2)C[C@H](C)O1` (stereo in doubt) [Compound 417, (R)-3-cyano-N-(2-((4-(3-((cis)-2,6-dimethylmorpholino)phenyl)thiazol-2-yl)amino)-2-oxoethyl)-3-methyl-2,3-dihydrobenzofuran-5-carboxamide]: on BRM (30 nM BRM, 400 μM ATP), the “BRM Max % Inhibition” value is on record as over 95% and the IC50 was under 0.1 µM. In addition, on BRG-1 (30 nM BRG-1, 400 μM ATP), the IC50 was 0.1 to 1 µM and the Emax is over 95%.

On to `C[C@@H]1CN(c2cccc(-c3csc(NC(=O)CNC(=O)c4ccc5c(c4)C(C)(C#N)COC5)n3)n2)C[C@H](C)O1` (stereo in doubt) [Compound 420, (R)-4-cyano-N-(2-((4-(6-((cis)-2,6-dimethylmorpholino)pyridin-2-yl)thiazol-2-yl)amino)-2-oxoethyl)-4-methylisochromane-6-carboxamide], for which, on BRM (30 nM BRM, 400 μM ATP), the “BRM Max % Inhibition” value is over 95% and the IC50 is under 0.1 µM. On BRG-1 (30 nM BRG-1, 400 μM ATP), the IC50 was under 0.1 µM and the Emax is over 95%.

For the compound `C[C@@H]1CN(c2cccc(-c3csc(NC(=O)CNC(=O)c4ccc5c(c4)C(C)(C#N)COC5)n3)n2)C[C@H](C)O1` (stereo in doubt) [Compound 421, (S)-4-cyano-N-(2-((4-(6-((cis)-2,6-dimethylmorpholino)pyridin-2-yl)thiazol-2-yl)amino)-2-oxoethyl)-4-methylisochromane-6-carboxamide], at BRM (30 nM BRM, 400 μM ATP), the “BRM Max % Inhibition” value is recorded as over 80% and the IC50 is 1 to 5 µM. At BRG-1 (30 nM BRG-1, 400 μM ATP), the IC50 is over 5 µM and the Emax was over 80%.

Take `CC1(C#N)CCOc2ccc(C(=O)NCC(=O)Nc3nc(-c4cccc(C5(F)COC5)c4)cs3)cc21` (stereo in doubt) [Compound 422, (S)-4-cyano-N-(2-((4-(3-(3-fluorooxetan-3-yl)phenyl)thiazol-2-yl)amino)-2-oxoethyl)-4-methylchromane-6-carboxamide]: at BRM (30 nM BRM, 400 μM ATP), the “BRM Max % Inhibition” value was over 95% and the half-inhibitory concentration (IC50) lay in the range of 0.1 to 1 µM. Besides, at BRG-1 (30 nM BRG-1, 400 μM ATP), the IC50 was 1 to 5 µM and the Emax is over 95%.

Turning to `CC1(C#N)CCOc2ccc(C(=O)NCC(=O)Nc3nc(-c4cccc(C5COC5)c4)cs3)cc21` (stereo in doubt) [Compound 423, (S)-4-cyano-4-methyl-N-(2-((4-(3-(oxetan-3-yl)phenyl)thiazol-2-yl)amino)-2-oxoethyl)chromane-6-carboxamide], at BRM (30 nM BRM, 400 μM ATP), the “BRM Max % Inhibition” value was over 95% and the IC50 is under 0.1 µM. In addition, on BRG-1 (30 nM BRG-1, 400 μM ATP), the IC50 lay within 0.1 to 1 µM and the Emax is over 95%.

Consider `C[C@@H]1CN(c2cccc(-c3csc(NC(=O)CNC(=O)c4cccc([C@H]5COC[C@H]5O)c4)n3)n2)C[C@H](C)O1` (stereo in doubt) [Compound 425, N-(2-((4-(6-((cis)-2,6-dimethylmorpholino)pyridin-2-yl)thiazol-2-yl)amino)-2-oxoethyl)-3-((trans)-4-hydroxytetrahydrofuran-3-yl)benzamide], for which, on BRM (30 nM BRM, 400 μM ATP), the “BRM Max % Inhibition” value was over 85% and the IC50 lay in the range of 0.1 to 1 µM. For the same compound, on BRG-1 (30 nM BRG-1, 400 μM ATP), the IC50 was over 5 µM and the Emax was over 85%.

For `C[C@@H]1CN(c2cccc(-c3csc(NC(=O)CNC(=O)c4ccnc(C(C)(C#N)CO)c4)n3)c2)C[C@H](C)O1` (stereo in doubt) [Compound 427, 2-((R)-2-cyano-1-hydroxypropan-2-yl)-N-(2-((4-(3-((cis)-2,6-dimethylmorpholino)phenyl)thiazol-2-yl)amino)-2-oxoethyl)isonicotinamide], at BRM (30 nM BRM, 400 μM ATP), the “BRM Max % Inhibition” value was over 85% and the half-maximal inhibitory concentration (IC50) lay within 0.1 to 1 µM. In addition, at BRG-1 (30 nM BRG-1, 400 μM ATP), the IC50 was over 5 µM and the Emax is over 85%.

As to `CC1(C#N)CCOc2ccc(C(=O)NCC(=O)Nc3nc(-c4cccc([C@H]5CC5(F)F)c4)cs3)cc21` (stereo in doubt) [Compound 428, (S)-4-cyano-N-(2-((4-(3-((R)-2,2-difluorocyclopropyl)phenyl)thiazol-2-yl)amino)-2-oxoethyl)-4-methylchromane-6-carboxamide], at BRM (30 nM BRM, 400 μM ATP), the “BRM Max % Inhibition” value is over 95% and the IC50 is under 0.1 µM. On BRG-1 (30 nM BRG-1, 400 μM ATP), the IC50 is 0.1 to 1 µM and the Emax is over 95%.

In the case of `CC1(C#N)CCOc2ccc(C(=O)NCC(=O)Nc3nc(-c4cccc([C@@H]5CC5(F)F)c4)cs3)cc21` (stereo in doubt) [Compound 429, (S)-4-cyano-N-(2-((4-(3-((S)-2,2-difluorocyclopropyl)phenyl)thiazol-2-yl)amino)-2-oxoethyl)-4-methylchromane-6-carboxamide], at BRM (30 nM BRM, 400 μM ATP), the “BRM Max % Inhibition” value is on record as over 95% and the IC50 is under 0.1 µM. Moreover, on BRG-1 (30 nM BRG-1, 400 μM ATP), the IC50 fell in the range of 1 to 5 µM and the Emax was over 95%.

Source of the values: patent US12685735B2 (Foghorn Therapeutics Inc., priority 2020, dated 2026).
